In patent US20220041582A1, “ISOXAZOLINE COMPOUNDS FOR CONTROLLING INVERTEBRATE PESTS” (FMC Corporation, priority 2018, published 2022):
Where two headings read alike, the source gives them in different places.

Columns and labels:
Type in all cases: in vivo
[1] = tested on: green peach aphid (Myzus persicae (Sulzer)); assay: Test E: control of green peach aphid through contact and/or systemic means; conditions: 144 h
Description: (§1) Formulation and Spray Methodology for Tests A-H
(§2) Test compounds were formulated using a solution containing 10% acetone, 90% water and 300 ppm Activator 90® non-ionic surfactant (Loveland Products, Loveland, Colo., USA). The formulated compounds were applied in 1 mL of liquid through an atomizer nozzle positioned 1.27 cm (0.5 inches) above the top of each test unit. Test compounds were sprayed at the rates indicated, and each test was replicated three times.
For evaluating control of green peach aphid (Myzus persicae (Sulzer)) through contact and/or systemic means, the test unit consisted of a small open container with a 12-15-day-old radish plant inside. This was pre-infested by placing on a leaf of the test plant 30-40 aphids on a piece of leaf excised from a culture plant (cut-leaf method). The aphids moved onto the test plant as the leaf piece desiccated. After pre-infestation, the soil of the test unit was covered with a layer of sand.
Test compounds were formulated and sprayed at 250, 50 and 10 ppm. After spraying of the formulated test compound, each test unit was allowed to dry for 1 hour and then a black, screened cap was placed on top. The test units were held for 6 days in a growth chamber at 19-21° C. and 50-70% relative humidity. Each test unit was then visually assessed for insect mortality.

[2] = tested on: cotton melon aphid (Aphis gossypii (Glover)); assay: Test F: control of cotton melon aphid through contact and/or systemic means; conditions: 144 h
Description: as §1, §2
[…] This was pre-infested with 30-40 insects on a piece of leaf according to the cut-leaf method, and the soil of the test unit was covered with a layer of sand.
Test compounds were formulated and sprayed at 250, 50 and 10 ppm. After spraying, the test units were maintained in a growth chamber for 6 days at 19° C. and 70% relative humidity. Each test unit was then visually assessed for insect mortality.

[3] = tested on: sweetpotato whitefly (Bemisia tabaci (Gennadius)); assay: Test G: control of sweetpotato whitefly through contact and/or systemic means; conditions: 312 h
Description: as §1, §2
For evaluating control of the sweetpotato whitefly (Bemisia tabaci (Gennadius)) through contact and/or systemic means, the test unit consisted of a small open container with a 12-14-day-old cotton plant inside. Prior to the spray application, both cotyledons were removed from the plant, leaving one true leaf for the assay. Adult whiteflies were allowed to lay eggs on the plant and then were removed from the test unit. Cotton plants infested with at least 15 eggs were submitted to the test for spraying.
Test compounds were formulated and sprayed at 250, 50 and 10 ppm. After spraying, the test units were allowed to dry for 1 hour. The cylinders were then removed, and the units were taken to a growth chamber and held for 13 days at 28° C. and 50-70% relative humidity. Each test unit was then visually assessed for insect mortality.

[4] = tested on: potato leafhopper (Empoasca fabae (Harris)); assay: Test D: control of potato leafhopper through contact and/or systemic means; conditions: 144 h
Description: as §1, §2
[…] White sand was added to the top of the soil, and one of the primary leaves was excised prior to application of the test compound.
Test compounds were formulated and sprayed at 250, 50 and 10 ppm. After spraying of the formulated test compound, the test units were allowed to dry for 1 hour before they were post-infested with 5 potato leafhoppers (18-to-21-day-old adults). A black, screened cap was placed on the top of the test unit, and the test units were held for 6 days in a growth chamber at 20° C. and 70% relative humidity. Each test unit was then visually assessed for insect mortality.

[5] = 10 ppm spray, 6 days, read-out: mortality
[6] = 50 ppm spray, 6 days, read-out: mortality

| SMILES | mortality at 50 ppm [3] [%] | mortality at 50 ppm [1] [%] | mortality at 10 ppm [2] [%] | mortality at 50 ppm [2] [%] | mortality at 50 ppm [4] [%] | also measured |
| --- | --- | --- | --- | --- | --- | --- |
| O=C(NCC1CC1)c1ccc(C2=NOC(c3cccc(C(F)(F)F)c3)(C(F)(F)F)C2)c2ccncc12 (racemic) [Compound 17, N-(cyclopropylmethyl)-5-[4,5-dihydro-5-(trifluoromethyl)-5-[3-(trifluoromethyl)phenyl]-3-isoxazolyl]-8-isoquinolinecarboxamide] | – | – | – | – | – | mortality at 10 ppm [1, 5]: ≥ 80%; mortality at 50 ppm [1, 6]: ≥ 80%; mortality at 10 ppm [2, 5]: ≥ 80%; mortality at 50 ppm [2, 6]: ≥ 80% |
| CC(C)(C)NC(=O)c1ccc(C2=NOC(c3cc(Cl)c(F)c(Cl)c3)(C(F)(F)F)C2)c2ccncc12 (centres unmarked) [Compound 2, 5-[5-(3,5-dichloro-4-fluorophenyl)-4,5-dihydro-5-(trifluoromethyl)-3-isoxazolyl]-N-(1,1-dimethylethyl)-8-isoquinolinecarboxamide] | ≥ 50 | ≥ 80 | ≥ 80 | ≥ 80 | ≥ 80 | mortality at 10 ppm [3]: ≥ 50%; mortality at 250 ppm [3]: ≥ 50%; mortality at 250 ppm [1]: ≥ 80%; mortality at 250 ppm [2]: ≥ 80%; mortality at 250 ppm [4]: ≥ 80% |
| O=C(NCC1CC1)c1ccc(C2=NOC(c3cc(Cl)c(F)c(Cl)c3)(C(F)(F)F)C2)c2ccncc12 (centres unmarked) [Compound 3, N-(cyclopropylmethyl)-5-[5-(3,5-dichloro-4-fluorophenyl)-4,5-dihydro-5-(trifluoromethyl)-3-isoxazolyl]-8-isoquinolinecarboxamide] | ≥ 50 | ≥ 80 | ≥ 80 | ≥ 80 | – | mortality at 10 ppm [3]: ≥ 50%; mortality at 10 ppm [1]: ≥ 80% |
| O=C(NCc1cnccn1)c1ccc(C2=NOC(c3cc(Cl)c(F)c(Cl)c3)(C(F)(F)F)C2)c2ccncc12 (centres unmarked) [Compound 7] | ≥ 50 | ≥ 80 | – | ≥ 80 | ≥ 80 | – |
| CSC[C@@H](C)NC(=O)c1ccc(C2=NOC(c3cc(Cl)c(F)c(Cl)c3)(C(F)(F)F)C2)c2ccncc12 (some centres unmarked) [Compound 8] | – | – | – | ≥ 80 | – | – |
| N#CC1(CNC(=O)c2ccc(C3=NOC(c4cc(Cl)c(F)c(Cl)c4)(C(F)(F)F)C3)c3ccncc23)CC1 (centres unmarked) [Compound 10] | ≥ 50 | ≥ 80 | – | ≥ 80 | ≥ 80 | mortality at 10 ppm [3]: ≥ 50% |
| C[S+]([O-])CCNC(=O)c1ccc(C2=NOC(c3cc(Cl)c(F)c(Cl)c3)(C(F)(F)F)C2)c2ccncc12 (centres unmarked) [Compound 11] | – | ≥ 80 | – | ≥ 80 | ≥ 80 | mortality at 10 ppm [4]: ≥ 80% |
| CS(=O)(=O)CCNC(=O)c1ccc(C2=NOC(c3cc(Cl)c(F)c(Cl)c3)(C(F)(F)F)C2)c2ccncc12 (centres unmarked) [Compound 12] | – | – | – | ≥ 80 | – | – |
| C[C@@H](NC(=O)c1ccc(C2=NOC(c3cc(Cl)c(F)c(Cl)c3)(C(F)(F)F)C2)c2ccncc12)c1ccccn1 (some centres unmarked) [Compound 13] | ≥ 50 | ≥ 80 | ≥ 80 | ≥ 80 | ≥ 80 | mortality at 10 ppm [3]: ≥ 50%; mortality at 10 ppm [1]: ≥ 80%; mortality at 10 ppm [4]: ≥ 80% |
| C[C@H](C[S+](C)[O-])NC(=O)c1ccc(C2=NOC(c3cc(Cl)c(F)c(Cl)c3)(C(F)(F)F)C2)c2ccncc12 (some centres unmarked) [Compound 14] | – | – | – | – | ≥ 80 | – |
| O=C(NC1CC1)c1ccc(C2=NOC(c3cccc(C(F)(F)F)c3)(C(F)(F)F)C2)c2ccncc12 (centres unmarked) [Compound 16, N-cyclopropyl-5-[4,5-dihydro-5-(trifluoromethyl)-5-[3-(trifluoromethyl)phenyl]-3-isoxazolyl]-8-isoquinolinecarboxamide] | – | – | – | – | – | mortality at 50 ppm [1, 6]: ≥ 80% |
| CS(=O)(=O)CCNC(=O)c1ccc(C2=NOC(c3cccc(C(F)(F)F)c3)(C(F)(F)F)C2)c2ccncc12 (centres unmarked) [Compound 19] | – | – | – | – | – | mortality at 50 ppm ([3]; 50 ppm spray, 13 days, read-out: mortality): ≥ 50%; mortality at 50 ppm [2, 6]: ≥ 80% |
| COCC(C)NC(=O)c1ccc(C2=NOC(c3cc(Cl)c(F)c(Cl)c3)(C(F)(F)F)C2)c2ccncc12 (centres unmarked) [Compound 20] | ≥ 50 | ≥ 80 | ≥ 80 | ≥ 80 | ≥ 80 | mortality at 10 ppm [3]: ≥ 50%; mortality at 10 ppm [1]: ≥ 80% |
| CS(=O)(=O)N1CC(NC(=O)c2ccc(C3=NOC(c4cc(Cl)c(F)c(Cl)c4)(C(F)(F)F)C3)c3ccncc23)C1 (centres unmarked) [Compound 21, 5-[5-(3,5-dichloro-4-fluorophenyl)-4,5-dihydro-5-(trifluoromethyl)-3-isoxazolyl]-N-[1-(methylsulfonyl)-3-azetidinyl]-8-isoquinolinecarboxamide] | ≥ 50 | – | – | ≥ 80 | ≥ 80 | – |
| O=C(NC1CC1)c1ccc(C2=NOC(c3cc(Cl)c(F)c(Cl)c3)(C(F)(F)F)C2)c2ccncc12 (centres unmarked) [Compound 23, N-cyclopropyl-5-[5-(3,5-dichloro-4-fluorophenyl)-4,5-dihydro-5-(trifluoromethyl)-3-isoxazolyl]-8-isoquinolinecarboxamide] | – | ≥ 80 | ≥ 80 | ≥ 80 | ≥ 80 | mortality at 10 ppm [1]: ≥ 80% |
| C[C@@H](NC(=O)c1ccc(C2=NOC(c3cccc(C(F)(F)F)c3)(C(F)(F)F)C2)c2ccncc12)C(N)=O (some centres unmarked) [Compound 25] | – | – | – | – | – | mortality at 50 ppm [2, 6]: ≥ 80% |
| O=C(NCC1CCCO1)c1ccc(C2=NOC(c3cc(Cl)c(F)c(Cl)c3)(C(F)(F)F)C2)c2ccncc12 (centres unmarked) [Compound 26] | ≥ 50 | – | – | ≥ 80 | – | – |
| CNC(=O)c1ccc(C2=NOC(c3cc(Cl)c(F)c(Cl)c3)(C(F)(F)F)C2)c2ccncc12 (centres unmarked) [Compound 27] | – | ≥ 80 | – | ≥ 80 | – | – |
| CC(C)NC(=O)c1ccc(C2=NOC(c3cc(Cl)c(F)c(Cl)c3)(C(F)(F)F)C2)c2ccncc12 (centres unmarked) [Compound 28] | ≥ 50 | ≥ 80 | ≥ 80 | ≥ 80 | ≥ 80 | mortality at 10 ppm [3]: ≥ 50%; mortality at 10 ppm [1]: ≥ 80% |
| C[S+]([O-])CCNC(=O)c1ccc(C2=NOC(c3cccc(C(F)(F)F)c3)(C(F)(F)F)C2)c2ccncc12 (centres unmarked) [Compound 30] | – | – | – | – | – | mortality at 50 ppm [2, 6]: ≥ 80% |
| C[C@@H](NC(=O)c1ccc(C2=NOC(c3cc(Cl)cc(C(F)(F)F)c3)(C(F)(F)F)C2)c2ccncc12)C(N)=O (some centres unmarked) [Compound 40] | – | – | – | ≥ 80 | – | – |
| O=C(NC1CSC1)c1ccc(C2=NOC(c3cc(Cl)c(F)c(Cl)c3)(C(F)(F)F)C2)c2ccncc12 (centres unmarked) [Compound 43] | – | – | – | ≥ 80 | ≥ 80 | – |
| CCNC(=O)c1ccc(C2=NOC(c3cc(Cl)c(F)c(Cl)c3)(C(F)(F)F)C2)c2ccncc12 (centres unmarked) [Compound 46, 5-[5-(3,5-dichloro-4-fluorophenyl)-4,5-dihydro-5-(trifluoromethyl)-3-isoxazolyl]-N-ethyl-8 soquinolinecarboxamide] | – | – | ≥ 80 | ≥ 80 | – | – |
| C[C@@H](NC(=O)c1ccc(C2=NOC(c3cc(Cl)c(F)c(Cl)c3)(C(F)(F)F)C2)c2ccncc12)C(=O)NCC(F)(F)F (some centres unmarked) [Compound 56] | ≥ 50 | ≥ 80 | – | ≥ 80 | – | – |
| C[C@H](CSCC(F)(F)F)NC(=O)c1ccc(C2=NOC(c3cc(Cl)c(F)c(Cl)c3)(C(F)(F)F)C2)c2ccncc12 (some centres unmarked) [Compound 62] | ≥ 50 | – | – | ≥ 80 | ≥ 80 | – |
| O=C(NC1CC1)c1ccc(C2=NOC(c3cc(Cl)cc(Cl)c3)(C(F)(F)F)C2)c2ccncc12 (centres unmarked) [Compound 70, N-cyclopropyl-5-[5-(3,5-dichlorophenyl)-4,5-dihydro-5-(trifluoromethyl)-3-isoxazolyl]-8-isoquinolinecarboxamide] | – | ≥ 80 | ≥ 80 | ≥ 80 | ≥ 80 | – |
| O=C(NC1CC1)c1ccc(C2=NO[C@@](c3cc(Cl)c(F)c(Cl)c3)(C(F)(F)F)C2)c2ccncc12 [Compound 82, S—N-cyclopropyl-5-[5-(3,5-dichloro-4-fluorophenyl)-4,5-dihydro-5-(trifluoromethyl)-3-isoxazolyl]-8-isoquinolinecarboxamide] | – | ≥ 80 | ≥ 80 | ≥ 80 | ≥ 80 | mortality at 10 ppm [1]: ≥ 80% |
